Data published in patent publication US12108719B2, “Methods for creating doubled haploid plants” (Monsanto Technology LLC, priority 2015, dated 2024).

Experiments:
[1] = system: induced haploid germplasms (A and B); experiment: Co-dominant ear induction by PBZ soil drench in colchicine-treated haploid maize (Example 1); format: in vivo
From the text: V1-V3 seedlings of two unique F1 hybrid-derived haploid maize lines, derived from: female heterotic group (Germplasm A) or male heterotic group (Germplasm B), were subjected to a bulk colchicine-based chromosome doubling treatment by removing the seedlings from soil or growth media at the V1-V3 growth stage and aligning their stems and wrapping them together along with several wooden rods into bundle a held together by a strip of aluminum foil (approximate foil strip dimensions were 6 in×18 in). The bundled plants were submerged in plant treatment solution comprising 1250 ppm of colchicine in a centrifuge container and then the entire sample was centrifuged at 50 g for 3 min while the shoot apical meristems (SAMs) remained submerged in the plant treatment agent solution.
Following the first centrifugation, the plant treatment solution was decanted and the seedlings subjected to an addition centrifugation at 335 g for 3 min. During the second centrifugation, the rod-wrap bundle supported the seedlings and prevented the SAMs from contacting the reserve treatment agent that was not absorbed by the plant during application of the centrifugal force.
Following the second centrifugation, the plants were removed from the centrifugation container and the rod-wrap bundle and rinsed with water to remove any remaining colchicine solution, and then recovered and tended in a light, humidity, and temperature-controlled greenhouse for several days before being transplanted to a nursery greenhouse. These centrifuge-based treatment methods are described in more detail in International application number PCT/US2015/028955, which is incorporated by reference herein in its entirety, however, standard doubling treatments can also be applied to any of the haploid doubling steps referred to herein.
Following colchicine doubling treatment, 15-20 plants from each germplasm were planted in pots at two different densities; either as single plants per pot (singles), or as two plants per pot (pairs).
Next, each plant received one of two different doses of PBZ, either 50 mL (low dose) or 60 mL (high dose) of a 2.5% PBZ solution (v/v; 0.4% of active ingredient) in water. These two different doses were applied by soil drench at either the V7 or V8 growth stage, which occurred a total of 23 or 26 days after the seedlings had been subjected to chromosome doubling treatment, respectively. A control group of plants received no treatment solution but were otherwise treated exactly as the experimental groups planted as singles. When pollen shed began at the tassels, the average number of silk-producing ears (i.e. co-dominant ears) were counted for each dosage, germplasm, and treatment time and the results summarized in Table. 1.

[2] = system: DH0 plants; experiment: Ears classified by number of DH1 seed produced, first 3 co-dominant ears (Example 4); format: in vivo, maize; parameters: key: Class A ears produced approximately 50 seeds; Class B ears produced approximately 20-49 seeds; Class C ears produced approximately 1-20 seeds; Class 0 ears produced zero seeds; “—” represents a situation where a third ear was not formed by the plant
From the text: When the DH1 ears were harvested in the experiment described in Example 3, four DH0 plants selected randomly from each germplasm were subjected to further scrutiny comprising recording of the approximate number of seeds produced from the first 3 co-dominant ears for each plant. […] In Table 4, ears are assigned to one of 4 categories, depending on the approximate number of seeds they produced: Class A ears produced approximately 50 seeds, Class B ears produced approximately 20-49 seeds, Class C ears produced approximately 1-20 seeds, and Class 0 ears produced zero seeds.

SMILES: CC(C)(C)[C@H](O)[C@H](Cc1ccc(Cl)cc1)n1cncn1 (relative stereo) [PBZ, (2S,3S)-1-(4-chlorophenyl)-4,4-dimethyl-2-(1,2,4-triazol-1-yl) pentan-3-ol]
- number of co-dominant ears formed per plant ([1]; V7, Germplasm A, planted as pairs, low dose (50 mL 2.5% PBZ)): 3
- average EP of high dosage greater than EP of low dosage ([1]; all plants, high vs low dosage): 0.31
- high-dose EP average higher than the low-dose ([1]; only the singles): 0.55
- minimum increase of EP over control plants ([1]; singles subjected to the low dose): ≥ 1.2 EP
- Ears classified by the number of DH1 seed they produced ([2]; A, Plant 1, 1st ear): C (Class C ears produced approximately 1-20 seeds)
- Ears classified by the number of DH1 seed they produced ([2]; A, Plant 1, 2nd ear): B (Class B ears produced approximately 20-49 seeds)
- Ears classified by the number of DH1 seed they produced ([2]; A, Plant 1, 3rd ear): C (Class C ears produced approximately 1-20 seeds)
- Ears classified by the number of DH1 seed they produced ([2]; A, Plant 2, 1st ear): C (Class C ears produced approximately 1-20 seeds)
- Ears classified by the number of DH1 seed they produced ([2]; A, Plant 2, 2nd ear): A (Class A ears produced approximately 50 seeds)
- Ears classified by the number of DH1 seed they produced ([2]; A, Plant 2, 3rd ear): C (Class C ears produced approximately 1-20 seeds)
- Ears classified by the number of DH1 seed they produced ([2]; A, Plant 3, 1st ear): C (Class C ears produced approximately 1-20 seeds)
- Ears classified by the number of DH1 seed they produced ([2]; A, Plant 3, 2nd ear): C (Class C ears produced approximately 1-20 seeds)
- Ears classified by the number of DH1 seed they produced ([2]; A, Plant 3, 3rd ear): B (Class B ears produced approximately 20-49 seeds)
- Ears classified by the number of DH1 seed they produced ([2]; A, Plant 4, 1st ear): A (Class A ears produced approximately 50 seeds)
- Ears classified by the number of DH1 seed they produced ([2]; A, Plant 4, 2nd ear): C (Class C ears produced approximately 1-20 seeds)
- Ears classified by the number of DH1 seed they produced ([2]; A, Plant 4, 3rd ear): 0 (Class 0 ears produced zero seeds)
- Ears classified by the number of DH1 seed they produced ([2]; B, Plant 1, 1st ear): C (Class C ears produced approximately 1-20 seeds)
- Ears classified by the number of DH1 seed they produced ([2]; B, Plant 1, 2nd ear): A (Class A ears produced approximately 50 seeds)
- Ears classified by the number of DH1 seed they produced ([2]; B, Plant 1, 3rd ear): —
- Ears classified by the number of DH1 seed they produced ([2]; B, Plant 2, 1st ear): B (Class B ears produced approximately 20-49 seeds)
- Ears classified by the number of DH1 seed they produced ([2]; B, Plant 2, 2nd ear): C (Class C ears produced approximately 1-20 seeds)
- Ears classified by the number of DH1 seed they produced ([2]; B, Plant 2, 3rd ear): C (Class C ears produced approximately 1-20 seeds)
- Ears classified by the number of DH1 seed they produced ([2]; B, Plant 3, 1st ear): C (Class C ears produced approximately 1-20 seeds)
- Ears classified by the number of DH1 seed they produced ([2]; B, Plant 3, 2nd ear): A (Class A ears produced approximately 50 seeds)
- Ears classified by the number of DH1 seed they produced ([2]; B, Plant 3, 3rd ear): C (Class C ears produced approximately 1-20 seeds)
- Ears classified by the number of DH1 seed they produced ([2]; B, Plant 4, 1st ear): C (Class C ears produced approximately 1-20 seeds)
- Ears classified by the number of DH1 seed they produced ([2]; B, Plant 4, 2nd ear): A (Class A ears produced approximately 50 seeds)
- Ears classified by the number of DH1 seed they produced ([2]; B, Plant 4, 3rd ear): C (Class C ears produced approximately 1-20 seeds)
- Ears classified by the number of DH1 seed they produced ([2]; Control A, Plant 1, 1st ear): B (Class B ears produced approximately 20-49 seeds)
- Ears classified by the number of DH1 seed they produced ([2]; Control A, Plant 1, 2nd ear): A (Class A ears produced approximately 50 seeds)
- Ears classified by the number of DH1 seed they produced ([2]; Control A, Plant 1, 3rd ear): —
- Ears classified by the number of DH1 seed they produced ([2]; Control A, Plant 2, 1st ear): C (Class C ears produced approximately 1-20 seeds)
- Ears classified by the number of DH1 seed they produced ([2]; Control A, Plant 2, 2nd ear): B (Class B ears produced approximately 20-49 seeds)
- Ears classified by the number of DH1 seed they produced ([2]; Control A, Plant 2, 3rd ear): C (Class C ears produced approximately 1-20 seeds)
- Ears classified by the number of DH1 seed they produced ([2]; Control A, Plant 3, 1st ear): A (Class A ears produced approximately 50 seeds)
- Ears classified by the number of DH1 seed they produced ([2]; Control A, Plant 3, 2nd ear): C (Class C ears produced approximately 1-20 seeds)
- Ears classified by the number of DH1 seed they produced ([2]; Control A, Plant 3, 3rd ear): 0 (Class 0 ears produced zero seeds)
- Ears classified by the number of DH1 seed they produced ([2]; Control A, Plant 4, 1st ear): B (Class B ears produced approximately 20-49 seeds)
- Ears classified by the number of DH1 seed they produced ([2]; Control A, Plant 4, 2nd ear): B (Class B ears produced approximately 20-49 seeds)
- Ears classified by the number of DH1 seed they produced ([2]; Control A, Plant 4, 3rd ear): 0 (Class 0 ears produced zero seeds)
- Ears classified by the number of DH1 seed they produced ([2]; Control B, Plant 1, 1st ear): C (Class C ears produced approximately 1-20 seeds)
- Ears classified by the number of DH1 seed they produced ([2]; Control B, Plant 1, 2nd ear): C (Class C ears produced approximately 1-20 seeds)
- Ears classified by the number of DH1 seed they produced ([2]; Control B, Plant 1, 3rd ear): B (Class B ears produced approximately 20-49 seeds)
- Ears classified by the number of DH1 seed they produced ([2]; Control B, Plant 2, 1st ear): A (Class A ears produced approximately 50 seeds)
- Ears classified by the number of DH1 seed they produced ([2]; Control B, Plant 2, 2nd ear): A (Class A ears produced approximately 50 seeds)
- Ears classified by the number of DH1 seed they produced ([2]; Control B, Plant 2, 3rd ear): 0 (Class 0 ears produced zero seeds)
- Ears classified by the number of DH1 seed they produced ([2]; Control B, Plant 3, 1st ear): A (Class A ears produced approximately 50 seeds)
- Ears classified by the number of DH1 seed they produced ([2]; Control B, Plant 3, 2nd ear): 0 (Class 0 ears produced zero seeds)
- Ears classified by the number of DH1 seed they produced ([2]; Control B, Plant 3, 3rd ear): C (Class C ears produced approximately 1-20 seeds)
- Ears classified by the number of DH1 seed they produced ([2]; Control B, Plant 4, 1st ear): B (Class B ears produced approximately 20-49 seeds)
- Ears classified by the number of DH1 seed they produced ([2]; Control B, Plant 4, 2nd ear): B (Class B ears produced approximately 20-49 seeds)
- Ears classified by the number of DH1 seed they produced ([2]; Control B, Plant 4, 3rd ear): C (Class C ears produced approximately 1-20 seeds)
